According to publication PMC12355554, “Development of novel mitochondrial pyruvate carrier inhibitors for breast cancer treatment” (The Journal of Biological Chemistry, 2025):
Read-outs that look alike come from different tables or passages of the source.

Legend:
[1] = target: T1, mitochondrial pyruvate carrier (MPC) (Mus musculus, UniProt P63030+Q9D023); experiment: Seahorse XFe96 Pyr-driven respiration in rPFO-permeabilized 4T1 cells; type: cell-based, murine; conditions: for effect on Pyr-driven respiration: Pyr/Mal, candidate compounds 1 μM
T1 construct: host or cells: 4T1 murine breast cancer cells, rPFO-permeabilized
T1 sequence (P63030 1-109): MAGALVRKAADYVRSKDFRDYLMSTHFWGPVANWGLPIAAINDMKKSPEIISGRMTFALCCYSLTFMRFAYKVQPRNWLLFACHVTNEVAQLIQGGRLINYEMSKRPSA
T1 sequence (Q9D023 1-127): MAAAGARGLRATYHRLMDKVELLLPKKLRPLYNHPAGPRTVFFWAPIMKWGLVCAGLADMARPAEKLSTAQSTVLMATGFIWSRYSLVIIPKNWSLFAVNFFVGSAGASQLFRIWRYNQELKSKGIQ
Protocol: After validating the ability of rPFO to permeabilize 4T1 cells without damaging mitochondria, we sought to investigate the ability of candidate compounds to inhibit Pyr-driven respiration in these cells (Fig. 1, D–G). In this regard, 4T1 cells were seeded in Seahorse XFe96 well plates and were incubated to reach confluence (∼18–24 h) in growth media (+serum). Growth media were then aspirated, and cells were washed with MAS buffer to remove serum and endogenous metabolic substrates. Serum- and substrate-starved cells were then incubated for equilibration in MAS buffer in a non-CO2 incubator. Inhibitors, rPFO, and substrate milieus were prepared in MAS buffer to be injected in succession to allow for real-time observation of the effects of compound-treated cultures on oxygen consumption rates (OCRs) when compared with vehicle (dimethyl sulfoxide [DMSO])-treated cells. Equilibrated intact cells were allowed to establish basal respiratory rates, followed by the injection of candidate compounds C1 to C4 at varying dose-titrated concentrations, respectively, and acute decreases in OCR were observed (Fig. 1, D–G). Compound exposure was performed in intact cells to avoid influence of rPFO on acute cellular targets. Cells were then exposed to rPFO, followed by the carbonyl cyanide-p-trifluoromethoxyphenylhydrazone (FCCP)–stimulated Pyr substrate milieu, which consisted of Pyr, malate (Mal), and dichloroacetate (DCA) to fuel uninhibited Pyr respiratory flux and maximal respiration. Mal and DCA were included to allow for continuous TCA cycle function without acetyl CoA feedback–mediated inhibition (Mal) or Pyr dehydrogenase–regulated inhibition (DCA) of Pyr uptake. Here, we observed a dose-dependent inhibition of Pyr-driven respiration in cells treated with the candidate compounds, allowing for logarithmic dose–response curves to be generated, and 50% inhibitory concentrations (IC50) to be calculated (Fig. 1, D–G). Finally, complex I and […] were injected to halt respiration and end the assay. […] In this regard, the fluoro-aminocarboxycoumarin derivative C4 has been designated as the lead candidate for further investigation.
(§1) Permeabilized cell assays were performed using rPFO as described previously. 4T1 cells were seeded (20,000 cells/well) onto Seahorse XFe96 well plates and incubated overnight in growth media at 37 °C and 5% CO2 for adherence. On the day of the assay, growth media were aspirated and replaced with MAS buffer (70 mM sucrose, 220 mM mannitol, 10 mM potassium phosphate monobasic, 5 mM magnesium chloride, 2 mM Hepes, and 1 mM EGTA) after 3X rinse of growth media to remove serum and endogenous metabolic substrates, and incubated at 37 °C in a non-CO2 incubator. Respective inhibitor and substrate milieu's were prepared in MAS buffer for port injections A–D at 8X, 9X, 10X, and 11X the target cell concentrations to account for intrinsic dilution factor of in situ injections of each port. […] Final substrate concentrations for specific tests were as follows: (5 mM Pyr , 0.5 mM Mal, 2 mM DCA; 10 mM glutamate, 0.5 mM Mal, 2 mM DCA; 10 mM succinate, 2 μM rotenone; 20 mM methyl Pyr, 5 mM Pyr, 0.5 mM Mal, and 2 mM DCA). ATP rate assays and mitochondrial stress tests were performed according to the manufacturer's (Agilent) instructions.

[2] = system: glutamate-driven respiration in 4T1 cells; experiment: Seahorse glutamate-driven respiration in permeabilized 4T1 cells; type: cell-based, murine; conditions: Glu/Mal, candidate compounds 1 μM
Text: (§2) Although our initial experiments and previous literature illustrate the ability of the candidate compounds to inhibit Pyr-driven respiration, we sought to investigate the ability of candidate compounds to inhibit respiration fueled by other metabolic substrates, glutamate and succinate (Fig. 2). Glutamate, similar to Pyr oxidation, results in NADH equivalents that fuel complex I-mediated respiration, and succinate metabolism offers FADH2 for electrons in complex II-driven respiratory processes. […] To further validate the mode of action of the candidate compounds, a series of similar Seahorse experiments were employed (Fig. 2, A–C). In these experiments, 4T1 cells were first permeabilized and were then offered metabolic substrates Pyr (Pyr/Mal; Fig. 2A), glutamate (Glu/Mal, Fig. 2B), or succinate (Fig. 2C), and the resulting OCR was observed. As described previously, Mal and DCA were included in the substrate milieu of glutamate respiration experiments. […] To validate that inhibition of Pyr respiration is due to mitochondrial Pyr uptake and not other Pyr-processing enzymes (i.e., Pyr dehydrogenase), a parallel experiment using methyl pyruvate (MePyr) was employed (Fig. 2, E and F). MePyr is permeable to the mitochondrial membranes, where in the matrix, mitochondrial esterase hydrolysis activity provides Pyr.
as §1

[3] = system: succinate-driven respiration in 4T1 cells; experiment: Seahorse succinate-driven respiration in permeabilized 4T1 cells; type: cell-based, murine; conditions: candidate compounds 1 μM
Text: as §2, §1

[4] = target: T1, mitochondrial pyruvate carrier (MPC); experiment: Methyl pyruvate reversal of inhibited Pyr-driven respiration; type: cell-based, murine; conditions: permeabilized 4T1 cells; 20 mM methyl Pyr
Text: as §2
Permeabilized cell assays were performed using rPFO as described previously. […]

[5] = target: T1, mitochondrial pyruvate carrier (MPC); experiment: Michaelis-Menten kinetics of mitochondrial pyruvate uptake (Seahorse OCR); type: cell-based, murine; conditions: permeabilized 4T1 cells; 10 nM inhibitor
Protocol: To further investigate the type of inhibition, we employed Michaelis–Menten experiments in modified Seahorse XFe96–based assays similar to described previously, and based on the model that Pyr uptake is directly coupled to NADH oxidation and oxygen consumption (Fig. 3A). In these experiments, 4T1 cells were permeabilized and were then administered varying concentrations of Pyr in the presence or the absence of 10 nM C3 or C4, respectively (Fig. 3, B–F). A rise in OCR indicated Pyr-driven respiration, where subsequent addition of FCCP stimulated maximal respiration, and substrate-dependent increases in OCR were observed and normalized to protein content (Fig. 3, B–F). In this regard, Michaelis–Menten curves were generated using the FCCP-stimulated OCR in C3- or C4-treated and -untreated cells where Michaelis–Menten parameters of maximal velocity (Vmax) and half-maximal substrate concentrations (Km) were calculated (Fig. 3, E–G). Michaelis–Menten assumptions include direct and irreversible substrate and carrier interaction that results in the OCRs and is analogous to standard enzymatic Michaelis–Menten models (Fig. 3A). […] Thus, C3 decreased the Vmax and increased the Km, not consistent with competitive inhibition where high substrate concentrations titrate out the inhibitor to reach intrinsic Vmax values. However, potential covalent bonding of inhibitor may limit the ability of Pyr to displace C3 from the active site, resulting in the observed “mixed” mode of inhibition.

[6] = Intrinsic CL in human liver microsomes; type: in vitro ADME; conditions: human, liver microsomes; exceeding the experimental endpoints
[7] = read-out: IC50, inhibition of Pyr-driven respiration
[8] = average ± SEM, read-out: IC50, inhibition of Pyr-driven respiration (Fig. 1G, unit inferred)

O=C(O)c1cc2ccc(N(c3ccc(F)cc3)c3ccc(F)cc3)cc2oc1=O [C1, 7-(bis(4-fluorophenyl)amino)-2-oxo-2H-chromene-3-carboxylic acid]
IC50 [1, 7]: > 1 µM

CN(c1ccc(F)cc1)c1ccc2cc(C(=O)O)c(=O)oc2c1 [C2, 7-((4-fluorophenyl)(methyl)amino)-2-oxo-2H-chromene-3-carboxylic acid]
effect on Pyr-driven respiration [1]: specifically inhibits
IC50 [1, 8]: 0.148 ± 0.0089 µM
IC50 [1, 7]: 0.147 µM
effect on glutamate-driven respiration [2]: without substantial effects
effect on succinate-driven respiration [3]: without substantial effects

CN(Cc1ccccc1)c1ccc2cc(C(=O)O)c(=O)oc2c1 [C3, 7-(benzyl(methyl)amino)-2-oxo-2H-chromene-3-carboxylic acid]
effect on Pyr-driven respiration [1]: specifically inhibits
IC50 [1, 8]: 0.0183 ± 0.0008 µM
IC50 [1, 7]: 0.018 µM
effect on glutamate-driven respiration [2]: without substantial effects
effect on succinate-driven respiration [3]: without substantial effects
reversal of Pyr-driven respiration effects by methyl pyruvate [4]: completely reversed
Vmax of Pyr-driven FCCP-stimulated OCR [5]: 10.8 pmol/min
mode of inhibition [5]: mixed
half-life [6]: > 2 h

CN(Cc1ccc(F)cc1)c1ccc2cc(C(=O)O)c(=O)oc2c1 [C4, 7-((4-fluorobenzyl)(methyl)amino)-2-oxo-2H-chromene-3-carboxylic acid]
effect on Pyr-driven respiration [1]: specifically inhibits
IC50 [1, 8]: 0.0166 ± 0.0048 µM
IC50 [1, 7]: 0.016 µM
effect on glutamate-driven respiration [2]: without substantial effects
effect on succinate-driven respiration [3]: without substantial effects
mode of inhibition [5]: competitive
